What is called melting point is the temperature of the solid-liquid transition.

Eleven molecules from paper PMC6010013, “Synthesis, physiochemical property and antimicrobial activity of novel quaternary ammonium salts” (Journal of Enzyme Inhibition and Medicinal Chemistry, 2017) can be followed below.

In data set [1] the test system is α-H-tococcus. Briefly: MBC, agar plating of dilutions without growth. The data set is classed as cell-based. Conditions: 99.9% bactericidal; for MBC: read-out: Minimal bactericidal concentration (MBC). From the text:
(§1) In this paper, antimicrobial activities of 24 QASs were detected by quantitative tests. […] Benzalkonium chloride (BZK) and chlorhexidine acetate (CA) was selected as positive controls. Representative compound POT-C12QAS (2) which synthesised and evaluated in previous work was also taken as a reference compound in MIC, MBC and cytotoxicity tests. […]
(§2) agriculture were used as target pathogens in this study, including three strains of Gram-positive bacteria (S. Aureus, α-H-tococcus, β-H-tococcus), three strains of Gram-negative bacteria (E. coli, P. aeruginosa, Proteus vulgaris) and four strains of fungi (Canidia albicans, Cytospora mandshurica, Physalospora piricola, Aspergillus niger). The antimicrobial tests were assayed, according to standard CLSI methods for antimicrobial dilution susceptibility tests to measure the minimum inhibitory concentration (MIC) and minimum bactericidal concentration (MBC)2.
(§3) A broth tube dilution method was followed to determine the MIC values for all the screened compounds against the micro-organisms, and for comparison benzalkonium chloride (BZK) and chlorhexidine acetate (CA) was used as a reference. For sample preparation, each of the test compounds and reference were dissolved in DMSO or sterile water at a concentration of 1600 μg/mL, and further dilutions of the compounds and reference in culture medium MHB (Muller-Hinton Broth) were prepared at the required quantities of 400, 200, 100 etc., down to 0.39 μg/mL. Bacterial strains and fungal strains were maintained on MHA (Muller-Hinton Agar) medium at 37℃ or 28 ℃ for 12 h or 72h, respectively. The microbial inocula were prepared by suspension in 10 mL of culture medium for colonies from culture on MHA. The cell density of each inoculum was adjusted in culture medium of a 0.5 McFarland standard (1-2×10^8 CFU/mL). The final amount applied was 10^5 CFU/mL for bacteria and fungi. The microbial inocula were added to the twofold diluted samples. One growth control tube was prepared […] the addition of the compound and one blank tube was prepared without the addition of the microorganism. MIC values were read after incubation at 37℃ or 28 ℃ for bacterial and fungal strains, respectively. After 12 h or 72h, the last tube with no growth of micro-organisms was recorded to represent the MIC value expressed in μg/ml. All experiments were carried out three times. […]
(§4) was placed on agar plates in triplicate, and incubated at 37℃ or 28 ℃ for 12 h or 72h. The number of colonies on each plate was read, and the MBC was determined as the lowest concentration that achieved a 99.9% bactericidal in the agar plate.

The subject of data set [2] is P. aeruginosa. Briefly: MBC, agar plating of dilutions without growth. Format: cell-based. Conditions: 99.9% bactericidal; for MBC: Pseudomonas aeruginosa, read-out: Minimal bactericidal concentration (MBC).
Description: as §1, §2, §3, §4

The subject of data set [3] is Physalospora piricola. Briefly: MBC, agar plating of dilutions without growth. Format: cell-based. The following applies: 99.9% bactericidal; for MBC: read-out: Minimal bactericidal concentration (MBC).
Description: as §1, §2, §3, §4

Data set [4] deals with S. aureus. Kind of data set: MBC, agar plating of dilutions without growth. The data set is classed as cell-based. Conditions: 99.9% bactericidal; for MBC: Staphylococcus aureus, read-out: Minimal bactericidal concentration (MBC).
Description: as §1, §2, §3, §4

The test system of data set [5] is Aspergillus niger. Briefly: MBC, agar plating of dilutions without growth. The data set is classed as cell-based. Conditions: 99.9% bactericidal; for MBC: read-out: Minimal bactericidal concentration (MBC).
Description: as §1, §2, §3, §4

In data set [6] the test system is E. coli. Briefly: MBC, agar plating of dilutions without growth. Format: cell-based. The following applies: 99.9% bactericidal; for MBC: Escherichia coli, read-out: Minimal bactericidal concentration (MBC).
Description: as §1, §2, §3, §4

Data set [7] relates to Proteus vulgaris. Kind of data set: MBC, agar plating of dilutions without growth. The data set is classed as cell-based. Conditions: 99.9% bactericidal; for MBC: read-out: Minimal bactericidal concentration (MBC).
Description: as §1, §2, §3, §4

Data set [8] deals with Cytospora mandshurica. Kind of data set: MBC, agar plating of dilutions without growth. Format: cell-based. The following applies: 99.9% bactericidal; for MBC: Cytospora, read-out: Minimal bactericidal concentration (MBC).
Description: as §1, §2, §3, §4

Data set [9] relates to Canidia albicans. Kind of data set: MBC, agar plating of dilutions without growth. Format: cell-based. The following applies: 99.9% bactericidal; for MBC: read-out: Minimal bactericidal concentration (MBC).
Description: as §1, §2, §3, §4

Data set [10] relates to β-H-tococcus. Briefly: MBC, agar plating of dilutions without growth. The data set is classed as cell-based. The following applies: 99.9% bactericidal; for MBC: read-out: Minimal bactericidal concentration (MBC).
Description: as §1, §2
as §3, with “respectively.” for “respectively. After 12 h or 72h, the last tube with no growth of micro-organisms was recorded to represent the MIC value expressed in μg/ml. All experiments were carried out three times.”
as §4

The test system of data set [11] is human immortalised epidermal (HaCat) cell line. Briefly: Cytotoxicity, MTT assay. Format: cell-based.
For data set [12], the system named is human normal liver (LO2) cell line. Briefly: Cytotoxicity, MTT assay. The data set is classed as cell-based. Background: Formazan colour is commonly taken as a measure of viable cells.

Like-named read-outs stand apart in the source and are kept apart here.

In the case of `[H]/N=C(\N/C(=N/[H])NCCCCCCNC(=N)NC(=N)Nc1ccc(Cl)cc1)Nc1ccc(Cl)cc1` [CA, chlorhexidine acetate, reference compound], the MBC in data set [1] worked out at 6.25 µg/mL; in data set [2], 25 µg/mL; in data set [3] it was 3.12 µg/mL; in data set [4], 6.25 µg/mL; in data set [5], 6.25 µg/mL; in data set [6], 12.5 µg/mL. Also, the MBC in [7] amounted to 12.5 µg/mL; in data set [8], 6.25 µg/mL; in data set [9], 12.5 µg/mL; in data set [10] it was 3.12 µg/mL.

Regarding `C[N+](CCO)(CCO)CCCCCCCCCCCCSc1nnc(-c2ccccc2)o1` [Compound 2, reference compound], the MBC was determined as 6.25 µg/mL in data set [1]; 25 µg/mL in data set [2]; 3.12 µg/mL in data set [3]; 12.5 µg/mL in [4]; 3.12 µg/mL in [5]; 50 µg/mL in [6]. Besides, the MBC worked out at 50 µg/mL in data set [7], 6.25 µg/mL in data set [8], 12.5 µg/mL in data set [9] and 6.25 µg/mL in [10].

In the case of `C[N+](CCO)(CCO)CCCCCCSc1nnc(-c2ccc(F)cc2)o1` [Compound 5a], the MBC in data set [1] amounted to 50 µg/mL; in data set [2] it was 100 µg/mL; in data set [3], 12.5 µg/mL; in [4], 100 µg/mL; in [5], 50 µg/mL; in data set [6] it was 100 µg/mL. For the same molecule, the MBC was 100 µg/mL in [7], 50 µg/mL in [8], 50 µg/mL in [9] and 25 µg/mL in data set [10].

For `C[N+](CCO)(CCO)CCCCCCCCCCSc1nnc(-c2ccc(F)cc2)o1` [Compound 5c], the MBC came out at 12.5 µg/mL in [1]; 50 µg/mL in data set [2]; 6.25 µg/mL in data set [3]; 25 µg/mL in data set [4]; 25 µg/mL in [5]; 50 µg/mL in data set [6]. The MBC in [7] was found to be 50 µg/mL; in data set [8] it was 12.5 µg/mL; in data set [9], 25 µg/mL; in [10], 12.5 µg/mL.

Consider `C[N+](CCO)(CCO)CCCCCCCCCCCCSc1nnc(-c2ccc(F)cc2)o1` [Compound 5d], for which the MBC in data set [1] is 12.5 µg/mL; in [2], 50 µg/mL; in data set [3], 3.12 µg/mL; in [4] it was 12.5 µg/mL; in data set [5], 25 µg/mL; in data set [6], 25 µg/mL. Moreover, the MBC was determined as 25 µg/mL in [7], 12.5 µg/mL in data set [8], 12.5 µg/mL in data set [9] and 6.25 µg/mL in [10].

For `C[N+](CCO)(CCO)CCCCCCSc1nnc(-c2ccc(C(F)(F)F)cc2)o1` [Compound 6a], the MBC was determined as 50 µg/mL in data set [1]; 100 µg/mL in [2]; 12.5 µg/mL in data set [3]; 50 µg/mL in data set [4]; 25 µg/mL in data set [5]; 50 µg/mL in data set [6]. In addition, the MBC in [7] was found to be 100 µg/mL; in [8] it was 25 µg/mL; in data set [9] it was 50 µg/mL; in data set [10] it was 25 µg/mL.

Regarding `C[N+](CCO)(CCO)CCCCCCCCSc1nnc(-c2ccc(C(F)(F)F)cc2)o1` [Compound 6b], the “Cytotoxicity IC50” value stood at 32.57 ± 2.69 µg/mL in data set [11] (HaCat cells, MTT, 24 h) and 38.72 ± 2.92 µg/mL in [12] (LO2 cells, MTT, 24 h). Moreover, the MBC in data set [1] was found to be 25 µg/mL; in data set [2], 50 µg/mL; in data set [3] it was 6.25 µg/mL; in [4] it was 25 µg/mL; in [5] it was 25 µg/mL; in data set [6], 50 µg/mL. Moreover, the MBC in data set [7] amounted to 50 µg/mL; in [8] it was 12.5 µg/mL; in data set [9], 25 µg/mL; in data set [10], 12.5 µg/mL.

With `C[N+](CCO)(CCO)CCCCCCCCCCSc1nnc(-c2ccc(C(F)(F)F)cc2)o1.[Br-]` [Compound 6c], the melting point lay in the range of 102 to 103 °C. In addition, the MBC in data set [1] is 12.5 µg/mL. For the same molecule, the MBC in [2] was found to be 50 µg/mL. The MBC in data set [3] came to 3.12 µg/mL. In [4], the MBC amounted to 25 µg/mL. In addition, the MBC in data set [5] worked out at 12.5 µg/mL. Also, the MBC in [6] stood at 25 µg/mL. In data set [7], the MBC turned out to be 25 µg/mL. The MBC in [8] came out at 12.5 µg/mL. Besides, the MBC in data set [9] came to 25 µg/mL. For the same molecule, the MBC in data set [10] stood at 6.25 µg/mL.

On to `C[N+](CCO)(CCO)CCCCCCCCCCCCSc1nnc(-c2ccc(C(F)(F)F)cc2)o1.[Br-]` [Compound 6d], for which the melting point fell in the range of 88 to 90 °C. Also, the MBC in data set [1] amounted to 6.25 µg/mL. The MBC in data set [2] came to 50 µg/mL. In addition, in data set [3], the MBC worked out at 1.56 µg/mL. Further, the MBC in data set [4] was determined as 12.5 µg/mL. For the same molecule, the MBC in [5] worked out at 6.25 µg/mL. Further, in [6], the MBC stood at 25 µg/mL. The MBC in data set [7] turned out to be 25 µg/mL. In addition, the MBC in data set [8] is 6.25 µg/mL. In addition, the MBC in [9] was determined as 12.5 µg/mL. For the same molecule, the MBC in data set [10] amounted to 3.12 µg/mL.

With `C[N+](CCO)(CCO)CCCCCCCCCCCCSc1nc2ccccc2s1` [Compound 13d], the MBC in [1] turned out to be 12.5 µg/mL; in data set [2], 25 µg/mL; in [3], 3.12 µg/mL; in [4] it was 6.25 µg/mL; in [5], 6.25 µg/mL; in data set [6], 25 µg/mL. The MBC in data set [7] was 25 µg/mL; in [8], roughly 6.25 µg/mL; in data set [9], 6.25 µg/mL; in data set [10] it was roughly 3.12 µg/mL.

As to “Benzalkonium chloride [BZK, reference compound]”, the “Cytotoxicity IC50” value amounted to 3.19 ± 0.26 µg/mL in [11] and 2.12 ± 0.43 µg/mL in [12]. The “Minimal bactericidal concentration (MBC)” value in [1] amounted to 3.125 µg/mL; in [2], 25 µg/mL; in data set [3], 3.125 µg/mL; in data set [4] it was 3.125 µg/mL; in data set [5], 6.25 µg/mL; in [6], 25 µg/mL. In addition, the “Minimal bactericidal concentration (MBC)” value was found to be 25 µg/mL in data set [7], 6.25 µg/mL in [8], 25 µg/mL in data set [9] and 1.56 µg/mL in data set [10].
